In patent US10004225B2, “Wearable insect repelling patch” (S. C. Johnson & Son, Inc., priority 2005, dated 2018):

System: mosquitoes
Test: Three-chamber test apparatus, mosquito personal area repellency of hung patches with human test subject as attractant
Format: in vivo
Conditions: Example 1, 2 patches 103 cm^2, 60 mg each; for % Repellency: no adhesive
Procedure: Various patch sizes and insect repellents were tested, initially using the test apparatus shown schematically generally at 20 in FIG. 3. The test apparatus 20 has a sample chamber 22, connected to a mosquito chamber 24, which is connected via an opening 34 to a remote chamber 26. Each chamber is generally cubical, with a volume of about 0.43 m^3.
The sample chamber 22 has an open end 28 on the side remote from the mosquito chamber 24. A screen 30 divides the sample chamber 22 from the mosquito chamber 24. The opening 34 between the mosquito chamber 24 and the remote chamber 26 is slightly constricted by side walls 32. However, the opening 34 is still sufficiently large that mosquitoes can freely move between the mosquito and remote chambers 24 and 26.
Four, screened, low-flow exhaust ports 36 are located in the side walls 32, the exhaust ports facing the open end 28. Air is drawn through the exhaust ports 36 and exhausted from the mosquito chamber 24 at a rate sufficient to draw air in through the open end 28 but insufficient to affect the flying of mosquitoes placed in the mosquito chamber 24 or to disturb the air in the remote chamber 26.
For each test, a human test subject 38 is placed at the open end 28 of the sample chamber 22, the test subject's breath providing the warmth, CO2, and moisture known to be human attractants for mosquitoes. The exhaust ports 36 pull air, along with those attractants, though the open end 28 and on through the sample chamber 22, the screen 30, and the mosquito chamber 24. The attractants thus leave the apparatus 20 without entering the remote chamber 26.
Mosquitoes are placed in the mosquito chamber 24 and are quickly attracted to the screen 30 by the human attractants. The open end 28 is large enough to expose primarily the upper torso and head of the test subject. Two patches 10 are hung one foot into the sample chamber 22 and approximately 20 cm down from the chamber's top (except as was done otherwise in particular experiments, as is noted, below).
Percent repellency was calculated as the percent of mosquitoes that had been initially introduced into the mosquito chamber 24 (most of which were attracted to the screen 30 before the patches 10 were put in place), that then were repelled from the screen when the patches were introduced. The “repellency” indicated in the table, below, for time zero reflects the mosquitoes that were not yet attracted to the screen 30 by the time the test patches 10 were introduced. […] The patches 10 used were 103 cm^2 in size, with no adhesive layer 18.
The patch material was a non-woven cloth material comprised of rayon, polyester, and polypropylene (as described in published U.S. Patent Application US20040082248), dosed with 60 mg of the active ingredient. The controls used no patches.
The same test apparatus 20 was used in the same way as described in Example 1, with the following changes. When a test included four patches 10, two were hung as in Example 1, and two were hung about 13 cm from the bottom of the chamber to simulate patches worn on the shoulders and at the waist of a user. In one test, as indicated in the table, below, the patches 10 were attached to the test subject's chest. Each individual patch was treated with the amount of insect repellent indicated. Time is shown in minutes.

SMILES: CC=C[C@@H]1[C@@H](C(=O)OCc2c(F)c(F)c(COC)c(F)c2F)C1(C)C (racemic) [metofluthrin, 2,3,5,6-tetrafluoro-4-methoxymethylbenzyl (EZ)-(1RS,3RS)-2,2-dimethyl-3-(prop-1-enyl)-cyclopropanecarboxylate]
- personal area repellency (result in words): successful personal area repellency
- % Repellency (5 min): 72%
- % Repellency (10 min): 92%
- % Repellency (15 min): 96%
- % Repellency (20 min): 98%
- % Repellency (time 0 min (mosquitoes not yet attracted to screen)): 10%
